Several values for one entry are separate records, joined by “and”; a condition that tells them apart may be missing. Equal entries are not always repeated.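 Method: 48-hour compound exposure of cells in 96-well plates, five concentrations, linear interpolation of endpoints. TGI marks complete inhibition of growth.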
Experiments:
Experiment in all cases: NCI tumour cell line growth inhibition, 48 h
U251 CNS = tested on: U251 CNS
MDA-MB-435 = tested on: MDA-MB-435
NCI/ADR-RES ovarian = tested on: NCI/ADR-RES ovarian
SK-OV-3 ovarian = tested on: SK-OV-3 ovarian
M14 melanoma = tested on: M14 melanoma
HCC-2998 colon = tested on: HCC-2998 colon
TK-10 renal = tested on: TK-10 renal
T-47D breast = tested on: T-47D breast
HL-60(TB) leukemia = tested on: HL-60(TB) leukemia
PC-3 prostate = tested on: PC-3 prostate
NCI-H226 lung = tested on: NCI-H226 lung
SK-MEL-5 melanoma = tested on: SK-MEL-5 melanoma
SF-268 CNS = tested on: SF-268 CNS
OVCAR-4 ovarian = tested on: OVCAR-4 ovarian
SW-620 colon = tested on: SW-620 colon
K-562 leukemia = tested on: K-562 leukemia
MCF7 breast = tested on: MCF7 breast
SK-MEL-28 melanoma = tested on: SK-MEL-28 melanoma
DU-145 prostate = tested on: DU-145 prostate
UACC-257 melanoma = tested on: UACC-257 melanoma
786-0 renal = tested on: 786-0 renal
HCT-116 colon = tested on: HCT-116 colon
A498 renal = tested on: A498 renal
SR leukemia = tested on: SR leukemia
OVCAR-8 ovarian = tested on: OVCAR-8 ovarian
HOP-62 NSCLC = tested on: HOP-62 NSCLC
SK-MEL-2 melanoma = tested on: SK-MEL-2 melanoma
RPMI-8226 leukemia = tested on: RPMI-8226 leukemia
MDA-N = tested on: MDA-N
LOX IMVI melanoma = tested on: LOX IMVI melanoma
OVCAR-3 ovarian = tested on: OVCAR-3 ovarian
MDA-MB-231 breast = tested on: MDA-MB-231 breast
NCI-H23 lung = tested on: NCI-H23 lung
HS 578T breast = tested on: HS 578T breast
CAKI-1 renal = tested on: CAKI-1 renal
HOP-92 NSCLC = tested on: HOP-92 NSCLC
HCT-15 colon = tested on: HCT-15 colon
MOLT-4 leukemia = tested on: MOLT-4 leukemia
CCRF-CEM leukemia = tested on: CCRF-CEM leukemia
HT29 colon = tested on: HT29 colon
IGROV1 ovarian = tested on: IGROV1 ovarian
OVCAR-5 ovarian = tested on: OVCAR-5 ovarian
ACHN renal = tested on: ACHN renal
KM12 colon = tested on: KM12 colon
SF-295 CNS = tested on: SF-295 CNS
EKVX NSCLC = tested on: EKVX NSCLC
NCI-H460 lung = tested on: NCI-H460 lung
SF-539 CNS = tested on: SF-539 CNS
NCI-H522 lung = tested on: NCI-H522 lung
RXF 393 renal = tested on: RXF 393 renal
UO-31 renal = tested on: UO-31 renal
SNB-75 CNS = tested on: SNB-75 CNS
UACC-62 melanoma = tested on: UACC-62 melanoma
SN12C renal = tested on: SN12C renal
BT-549 breast = tested on: BT-549 breast
MALME-3M melanoma = tested on: MALME-3M melanoma
SNB-19 CNS = tested on: SNB-19 CNS
A549 NSCLC = tested on: A549 NSCLC
COLO 205 colon = tested on: COLO 205 colon

Measured: TGI

COc1cc(C=C2C(C)=NN(c3cccc(Cl)c3)C23C(Cl)C(=O)N3c2nc3ccccc3s2)ccc1O (centres undefined)
30.3 µM: RXF 393 renal
59.5 µM: SK-OV-3 ovarian
12.5 µM: NCI-H522 lung
36.3 µM: SK-MEL-2 melanoma
66.1 µM: NCI-H460 lung
26.7 µM: MDA-MB-231 breast | HT29 colon
30.5 µM: RPMI-8226 leukemia
71.5 µM: CAKI-1 renal
30.1 µM: KM12 colon
38.8 µM: CCRF-CEM leukemia
17.2 µM: SR leukemia
43 µM: HS 578T breast
48.4 µM: IGROV1 ovarian
16 µM: SF-268 CNS
21.1 µM: MOLT-4 leukemia
50.9 µM: OVCAR-5 ovarian
52.2 µM: HCT-15 colon
36.9 µM: SK-MEL-5 melanoma
26 µM: SW-620 colon
63.6 µM: NCI-H226 lung
41.9 µM: M14 melanoma
73.1 µM: UACC-257 melanoma
25.2 µM: K-562 leukemia
57.4 µM: NCI-H23 lung
> 100 µM: NCI/ADR-RES ovarian | TK-10 renal | T-47D breast | OVCAR-4 ovarian | MCF7 breast | SK-MEL-28 melanoma | SF-295 CNS | EKVX NSCLC | SF-539 CNS
55 µM: UO-31 renal
9.16 µM: HCC-2998 colon
41.5 µM: OVCAR-8 ovarian
43.7 µM: 786-0 renal
35 µM: U251 CNS
72.2 µM: OVCAR-3 ovarian
40.2 µM: LOX IMVI melanoma
35.2 µM: A498 renal
48.7 µM: DU-145 prostate
45 µM: HCT-116 colon
35.1 µM: MDA-MB-435
30.4 µM: PC-3 prostate
39.1 µM: ACHN renal
69.1 µM: HOP-62 NSCLC
26.1 µM: HOP-92 NSCLC
74.7 µM: MDA-N
36 µM: HL-60(TB) leukemia

Cc1ccc(C(=O)Nc2ccc(S(=O)(=O)O)c3cc(S(=O)(=O)O)cc(S(=O)(=O)O)c23)cc1NC(=S)Nc1cc(C(=O)Nc2ccc(S(=O)(=O)O)c3cc(S(=O)(=O)O)cc(S(=O)(=O)O)c23)ccc1C
> 75 µM: U251 CNS | MDA-MB-435 | M14 melanoma | HCC-2998 colon | SNB-75 CNS | TK-10 renal | HL-60(TB) leukemia | PC-3 prostate | NCI-H226 lung | SK-MEL-5 melanoma | SF-268 CNS | OVCAR-4 ovarian | SW-620 colon | UACC-62 melanoma | K-562 leukemia | MCF7 breast | SK-MEL-28 melanoma | DU-145 prostate | UACC-257 melanoma | 786-0 renal | HCT-116 colon | A498 renal | SR leukemia | OVCAR-8 ovarian | SN12C renal | BT-549 breast | MALME-3M melanoma | HOP-62 NSCLC | SK-MEL-2 melanoma | RPMI-8226 leukemia | MDA-N | LOX IMVI melanoma | OVCAR-3 ovarian | MDA-MB-231 breast | SNB-19 CNS | NCI-H23 lung | CAKI-1 renal | HCT-15 colon | A549 NSCLC | MOLT-4 leukemia | CCRF-CEM leukemia | HT29 colon | IGROV1 ovarian | OVCAR-5 ovarian | ACHN renal | NCI-H460 lung | NCI-H522 lung | UO-31 renal

Cc1ccc(S(=O)(=O)N2C[C@](O)(c3ccccc3)[C@H]2C)cc1
> 100 µM: U251 CNS | MDA-MB-435 | NCI/ADR-RES ovarian | SK-OV-3 ovarian | M14 melanoma | SNB-75 CNS | TK-10 renal | T-47D breast | HL-60(TB) leukemia | PC-3 prostate | NCI-H226 lung | SK-MEL-5 melanoma | SF-268 CNS | OVCAR-4 ovarian | SW-620 colon | UACC-62 melanoma | MCF7 breast | SK-MEL-28 melanoma | DU-145 prostate | UACC-257 melanoma | 786-0 renal | HCT-116 colon | COLO 205 colon | A498 renal | OVCAR-8 ovarian | SN12C renal | MALME-3M melanoma | HOP-62 NSCLC | SK-MEL-2 melanoma | MDA-N | LOX IMVI melanoma | MDA-MB-231 breast | SNB-19 CNS | NCI-H23 lung | HS 578T breast | CAKI-1 renal | HOP-92 NSCLC | HCT-15 colon | A549 NSCLC | MOLT-4 leukemia | CCRF-CEM leukemia | HT29 colon | IGROV1 ovarian | OVCAR-5 ovarian | ACHN renal | KM12 colon | SF-295 CNS | EKVX NSCLC | NCI-H460 lung | SF-539 CNS | NCI-H522 lung | RXF 393 renal | UO-31 renal

CN(C)CC1COC2Cc3ccccc3C1O2 (centres undefined)
> 100 µM: U251 CNS | MDA-MB-435 | NCI/ADR-RES ovarian | SK-OV-3 ovarian | M14 melanoma | HCC-2998 colon | TK-10 renal | T-47D breast | HL-60(TB) leukemia | PC-3 prostate | NCI-H226 lung | SK-MEL-5 melanoma | SF-268 CNS | OVCAR-4 ovarian | UACC-62 melanoma | K-562 leukemia | MCF7 breast | SK-MEL-28 melanoma | DU-145 prostate | UACC-257 melanoma | 786-0 renal | HCT-116 colon | COLO 205 colon | A498 renal | SR leukemia | OVCAR-8 ovarian | SN12C renal | MALME-3M melanoma | HOP-62 NSCLC | SK-MEL-2 melanoma | RPMI-8226 leukemia | MDA-N | LOX IMVI melanoma | OVCAR-3 ovarian | MDA-MB-231 breast | SNB-19 CNS | NCI-H23 lung | HS 578T breast | CAKI-1 renal | HOP-92 NSCLC | HCT-15 colon | A549 NSCLC | MOLT-4 leukemia | CCRF-CEM leukemia | HT29 colon | IGROV1 ovarian | OVCAR-5 ovarian | ACHN renal | KM12 colon | SF-295 CNS | EKVX NSCLC | NCI-H460 lung | SF-539 CNS | NCI-H522 lung | RXF 393 renal | UO-31 renal
75.7 µM and 94.5 µM: SNB-75 CNS

Reference: PubChem BioAssay (NCI)
